These are literature values, as cited in patent US20220023238A1, “Process of Manufacturing a Stable, Ready to Use Infusion Bag for an Oxidation Sensitive Formulation” (InnoPharma, Inc., priority 2016, published 2022).

For data set [1] the following is noted: six adult volunteers, intravenous vs oral.
The conditions of data set [2]: intravenous, therapeutic dosing up to 4,000 mg daily.

Consider `CC(=O)Nc1ccc(O)cc1` [acetaminophen, N-(4-hydroxy-phenyl)acetamide], for which the “mean intravenous Cmax compared to oral route” value in data set [1] was “two”. For the same compound, the hepatotoxicity entry in data set [2] was “rarely associated with hepatotoxicity”.
